The values below come from US5705102A, “Photochromic spironaphthopyran compounds” (Vision-Ease Lens, Inc., priority 1995, dated 1998).

SMILES strings stand for the structures.

Series [1] in a line: Determination of maximum absorption wavelength (λmax) after UV irradiation in solution. Type of series: physicochemical. The settings on record: for λmax: chloroform, irradiated with ultraviolet light with a maximum wavelength of 350 nanometers. The procedure:
(§1) Each of the photochromic compounds (compound P) formed in step 2 of Examples 1-13 and Comparative Example 1 were independently dissolved in separate containers of chloroform. Additionally, a purchased sample of 3,3-diphenyl-naphtho-3H[2,1-b]pyran, identified as Comparative Example 2, was dissolved in a separate container of chloroform.
(§2) Each of the chloroform-dissolved photochromic compounds of Examples 1-13 and Comparative Examples 1-2 were then irradiated with ultraviolet light with a maximum wavelength of 350 nanometers and were measured for maximum absorption wavelength) λmax. The fade time, T1/2 was then determined for each of the irradiated compounds. The fade time for a particular chloroform dissolved photochromic compound is defined as the time interval, at room temperature (72° F.), for the absorbance of the activated form of the chloroform-dissolved photochromic compound to decrease to 1/2 of the maximum absorbance, after the photochromic compound is isolated from the activating source of ultraviolet light. The maximum absorption wavelength and fade time determined for each of the irradiated photochromic compounds of Examples 1-13 and Comparative Examples 1-2 are presented in Table 1: […]

The nature of series [2]: Determination of fade time T1/2 after isolation from the activating UV light. The class given is physicochemical. Also noted: key: *: Fades too fast to obtain readings. Particulars: chloroform, room temperature (72° F.). The procedure: as §1, §2
Series [3] is described as follows: Determination of maximum absorption wavelength (λmax) after UV irradiation in solution. Type of series: physicochemical. Set-up: key: *: Fades too fast to obtain readings. The settings on record: cyclohexane.
For series [4] the following is noted: U.S. Pat. No. 3,567,605 to Becker; cited from earlier work.
Series [5] is described as follows: Color of the compound or blend when activated by ultraviolet light. Type of series: physicochemical.
Setting [6] is: absorbance of activated form to decrease to 1/2 of maximum.

`C1=CC2(Oc3ccc4ccccc4c31)C(c1ccccc1)=C(c1ccccc1)c1ccccc12` (stereo not drawn) [Example 13] registered a λmax in series [1] of 454 Nanometers. Also, in series [2] (setting [6]), the “T1/2 (fade time)” value was determined as 35 s.

Molecule `COc1ccc2c3c(ccc2c1)OC1(C=C3)c2ccccc2CCC1C` (stereo not drawn) [Example 6, 2'-methyl-8-methoxyspiro(3H-naphtho[2,1-b]pyran-3,1'-tetralone)] registered a λmax in series [1] of 468 Nanometers. The “T1/2 (fade time)” value in series [2] (setting [6]) was 1.2 s.

Molecule `COc1ccc2c3c(ccc2c1)OC1(C=C3)c2ccccc2CC1C` (stereo not drawn) [Example 7, 2'-methyl-8-methoxyspiro(3H-naphtho[2,1-b]pyran-3,1'-indan)] came in with a λmax in series [1] of 478 Nanometers. For the same molecule, the “T1/2 (fade time)” value in series [2] (setting [6]) was 396 s.

For the molecule `COc1ccc2c3c(ccc2c1)OC1(C=C3)CCCc2ccccc21` (stereo not drawn) [Example 2, 8-methoxyspiro(3H-naphtho[2,1-b]pyran-3,1'-tetralone)], the λmax in series [1] stood at 474 Nanometers; in series [3], 465 Nanometers. The “T1/2 (fade time)” value in series [2] (setting [6]) was 15 s.

With `COc1ccc2c3c(ccc2c1)OC1(C=C3)CCCc2cc(OC)c(OC)cc21` (stereo not drawn) [Example 3, 6',7'-dimethoxy-8-methoxyspiro(3H-naphtho[2,1-b]pyran-3,1'-tetralone)], the λmax is recorded as 445 Nanometers in series [1] and “*” in series [3] (symbol, no reading). The “T1/2 (fade time)” value in series [2] (symbol, no reading) is “*”.

Consider `COc1ccc2c3c(ccc2c1)OC(c1ccccc1)(c1ccccc1)C=C3` [Comparative Example 1, 3,3-diphenyl-8-methoxy-3H-naphtho[2,1-b]pyran, reference compound], for which the λmax came out at 472 Nanometers in series [1] and 451 Nanometers in series [3]. Besides, in series [2] (setting [6]), the “T1/2 (fade time)” value came out at 10 s.

Turning to `COc1ccc2c3c(ccc2c1)OC1(C=C3)c2ccccc2CC(c2ccccc2)C1c1ccccc1` (stereo not drawn) [Example 5], in series [1], the λmax was 476 Nanometers. In addition, the “T1/2 (fade time)” value in series [2] (setting [6]) was found to be 13 s.

Regarding `CC1CCc2ccccc2C12C=Cc1c(ccc3ccccc13)O2` (stereo not drawn) [Example 11, 2'-methylspiro(3H-naphtho[2,1-b]pyran-3,1'-tetralone)], the λmax in series [1] is 444 Nanometers. The “T1/2 (fade time)” value in series [2] (symbol, no reading) was “*”.

For the molecule `C1=CC2(Oc3ccc4ccccc4c31)c1ccccc1-c1ccccc12` [Example 9, spiro(3H-naphtho[2,1-b]pyran-3,9'-fluorene)], the λmax in series [1] worked out at 445 Nanometers; in series [3], 438 Nanometers. The “maximum wavelengths of activation, compared with Comparative Example 2” value in series [1] (vs 3,3-diphenyl-naphtho-3H[2,1-b]pyran) is recorded as “longer maximum wavelengths of activation”. In addition, the “T1/2 (fade time)” value in series [2] (setting [6]) was 10 s.

`C1=CC(c2ccccc2)(c2ccccc2)Oc2ccc3ccccc3c21` [Comparative Example 2, 3,3-diphenyl-naphtho-3H[2,1-b]pyran, reference compound]: the λmax amounted to 435 Nanometers in series [1] and 415 Nanometers in series [3]. Besides, the “T1/2 (fade time)” value in series [2] (setting [6]) turned out to be 13 s. In addition, the photochromism entry in series [4] was “photochromic at room temperature”.

In series [1], `COc1ccc2c3c(ccc2c1)OC1(C=C3)C(c2ccccc2)=C(c2ccccc2)c2ccccc21` (stereo not drawn) [Example 8, 2',3'-diphenyl-8-methoxyspiro(3H-naphtho[2,1-b]pyran-3,1'-indene)] came in with a λmax of 512 Nanometers. Besides, the “T1/2 (fade time)” value in series [2] (setting [6]) was determined as 64 s.

Consider `COc1ccc2c3c(ccc2c1)OC1(C=C3)c2ccccc2-c2ccccc21` [Example 1, 8-methoxyspiro(3H-naphtho [2,1-b]pyran-3,9'-fluorene)], for which the λmax in series [1] was determined as 492 Nanometers; in series [3] it was 478 Nanometers. Moreover, the “activated maximum wavelength of absorption” value in series [1] (dissolved in chloroform, irradiated with ultraviolet light) was “about 492 nanometers”. The “maximum wavelength of activation, compared with Comparative Example 1” value in series [1] (vs 3,3-diphenyl-8-methoxy-3H-naphtho[2,1-b]pyran) is listed as “longer maximum wavelength of activation”. Also, in series [2] (setting [6]), the “T1/2 (fade time)” value amounted to 20 s. For the same molecule, in series [5], the “color when activated by ultraviolet light” value is “deep shade of orange”. Moreover, in series [5] (blended with blue-turning photochromic compounds, such as substituted spiroindolino naphthoxazine), the “color of blend with blue-turning photochromic compounds when activated by ultraviolet radiation” value is reported as “desirable, intense shade of gray”.
